Reference: PMC9065575, “Synthesis, computational studies, antimycobacterial and antibacterial properties of pyrazinoic acid–isoniazid hybrid conjugates” (RSC Advances, 2019)
≈ marks a conversion by molar mass, not a printed value. Where “and” joins values, the source holds several entries; their conditions need not be identical. Identical values can stand only once. Like-named read-outs stand apart in the source and are kept apart here.

Experiments:
Mycobacterium marinum = experiment: microbe, parasite or virus in culture; assay type: cell-based; conditions: clinical isolate, read-out: Minimum inhibitory concentration (MIC) M. marinum
Mycobacterium fortuitum = experiment: microbe, parasite or virus in culture; assay type: cell-based; conditions: for MIC: Mycolicibacterium fortuitum
Mycobacterium bovis = experiment: microbe, parasite or virus in culture; assay type: cell-based; conditions: Mycobacterium tuberculosis variant bovis, read-out: Minimum inhibitory concentration (MIC) M. bovis
[1] = system: M. tuberculosis Erdman strain expressing luciferase; experiment: microbe, parasite or virus in culture; assay type: cell-based, Mycobacterium tuberculosis; conditions: Mycobacterium tuberculosis, ERDMAN, 168 h; 30 μg mL^−1, pH 7.0, 7 days, vs untreated controls; read-out: Observed % growth inhibition at 30 µg/mL
[2] = system: RPE1 (normal human immortalized retinal epithelial) cell line; experiment: Antiproliferative properties by MTT technique; assay type: cell-based; conditions: RPE1 cells, 100 μM
Experimental: Antiproliferative properties of the synthesized compounds were screened against RPE1 (normal human immortalized retinal epithelial) cell line to determine the toxicity/selectivity towards normal cell by the standard MTT technique.[23]
Antiproliferative properties of the synthesized compounds were tested against RPE1 (normal human immortalized retinal epithelial) cell line at 100 μM to determine the toxicity/selectivity towards normal cell by the standard MTT technique.[23]

Enterococcus faecalis = experiment: Aerobic antibacterial MIC, standard dilution technique; assay type: cell-based; conditions: Enterococcus faecalis, clinical isolate; value in parentheses; read-out: Minimum inhibitory concentration (MIC) Enterococcus faecalis
Excerpt: Antibacterial properties were investigated for the synthesized compounds against a variety of Gram-positive (Staphylococcus aureus, Enterococcus faecalis) and Gram-negative (Klebsiella pneumonia, Proteus vulgaris, Pseudomonas aeruginosa) clinical isolate bacteria utilizing the standard technique.[21]

[3] = M. fortuitum, observed values listed with the BMLR-QSAR model, read-out: Observed MIC (Table S6)
[4] = clinical isolate, observed MIC, read-out: Minimum inhibitory concentration (MIC) M. fortuitum
[5] = clinical isolate, read-out: Minimum inhibitory concentration (MIC) M. fortuitum

Q: What does the source list for `CC(C)C[C@H](NC(=O)c1cnccn1)C(=O)O` [10a, (Pyrazine-2-carbonyl)-L-leucine]?
A: MIC (Mycobacterium marinum; observed MIC): 84.3 µM; MIC (Mycobacterium marinum): 20 µg/mL; MIC (Mycobacterium fortuitum; [3]): 84300 µM; MIC (Mycobacterium fortuitum; [4]): 84.3 µM; MIC (Mycobacterium fortuitum; [5]): 20 µg/mL; MIC (Mycobacterium bovis): > 20 µg/mL and > 84.3 µM; inhibition at 30 µg/mL [1]: 88.8%; Percentage of cell proliferation ± SD [2]: 84.6 ± 0.7%; melting point: 155 to 156 °C

Q: With `CC(C)[C@H](NC(=O)c1cnccn1)C(=O)O` [10b, (Pyrazine-2-carbonyl)-L-valine] as the molecule, how does the MIC (Enterococcus faecalis) read?
A: The MIC was 0.13 µM (≈ 0.029 µg/mL).

Q: And the MIC (Mycobacterium marinum; observed MIC)?
A: Its MIC is > 89.6 µM.

Q: And the MIC (Mycobacterium marinum)?
A: The MIC was > 20 µg/mL.

Q: What about the MIC (Mycobacterium fortuitum; [4]) of the same molecule?
A: The MIC was > 89.6 µM.

Q: What about the MIC (Mycobacterium fortuitum; [5]) of the same molecule?
A: Its MIC is > 20 µg/mL.

Q: And the MIC (Mycobacterium bovis)?
A: Its MIC is > 20 µg/mL and > 89.6 µM.

Q: What about the inhibition at 30 µg/mL [1] of the same molecule?
A: Its inhibition at 30 µg/mL is 91%.

Q: What about the “Percentage of cell proliferation ± SD” value [2] of the same molecule?
A: The value was 82.1 ± 3.0%.

Q: And the melting point?
A: Its melting point is 160 to 162 °C.

Q: What does the source list for `CC[C@@H](C)[C@H](NC(=O)c1cnccn1)C(=O)O` [10c, (Pyrazine-2-carbonyl)-L-alloisoleucine]?
A: MIC (Mycobacterium marinum; observed MIC): > 84.3 µM; MIC (Mycobacterium marinum): > 20 µg/mL; MIC (Mycobacterium fortuitum; [4]): > 84.3 µM; MIC (Mycobacterium fortuitum; [5]): > 20 µg/mL; MIC (Mycobacterium bovis): > 20 µg/mL and > 84.3 µM; inhibition at 30 µg/mL [1]: 84.3%; Percentage of cell proliferation ± SD [2]: 81.8 ± 5.5%; melting point: 164 to 166 °C

Q: Which results are given for `CSCC[C@H](NC(=O)c1cnccn1)C(=O)O` [10d, (Pyrazine-2-carbonyl)-L-methionine]?
A: MIC (Mycobacterium marinum; observed MIC): > 78.3 µM; MIC (Mycobacterium marinum): > 20 µg/mL; MIC (Mycobacterium fortuitum; [4]): > 78.3 µM; MIC (Mycobacterium fortuitum; [5]): > 20 µg/mL; MIC (Mycobacterium bovis): > 20 µg/mL and > 78.3 µM; inhibition at 30 µg/mL [1]: 80.2%; Percentage of cell proliferation ± SD [2]: 82.9 ± 8.5%; melting point: 136 to 138 °C

Q: For `O=C(N[C@@H](Cc1c[nH]c2ccccc12)C(=O)O)c1cnccn1` [10g, (Pyrazine-2-carbonyl)-L-tryptophan], which MIC (Mycobacterium marinum; observed MIC) is on record?
A: The MIC was > 64.5 µM.

Q: And the MIC (Mycobacterium marinum)?
A: The MIC was > 20 µg/mL.

Q: What about the MIC (Mycobacterium fortuitum; [4]) of the same molecule?
A: The MIC was > 64.5 µM.

Q: And the MIC (Mycobacterium fortuitum; [5])?
A: The MIC was > 20 µg/mL.

Q: What about the MIC (Mycobacterium bovis) of the same molecule?
A: Its MIC is > 20 µg/mL and > 64.5 µM.

Q: And the inhibition at 30 µg/mL [1]?
A: Its inhibition at 30 µg/mL is 8.8%.

Q: What about the “Percentage of cell proliferation ± SD” value [2] of the same molecule?
A: The value was 80.1 ± 7.4%.

Q: What about the melting point of the same molecule?
A: The melting point was 127 to 129 °C.

Q: For `CC(C)C[C@H](NC(=O)c1cnccn1)C(=O)NNC(=O)c1ccncc1` [12a, (S)-N-(1-(2-Isonicotinoylhydrazineyl)-4-methyl-1-oxopentan-2-yl)pyrazine-2-carboxamide], which MIC (Mycobacterium marinum; observed MIC) is on record?
A: The MIC was 56.1 µM.

Q: What about the MIC (Mycobacterium marinum) of the same molecule?
A: The MIC was 20 µg/mL.

Q: What about the MIC (Mycobacterium fortuitum; [3]) of the same molecule?
A: The MIC was 56100 µM.

Q: What about the MIC (Mycobacterium fortuitum; [4]) of the same molecule?
A: Its MIC is 56.1 µM.

Q: What about the MIC (Mycobacterium fortuitum; [5]) of the same molecule?
A: The MIC was 20 µg/mL.

Q: And the MIC (Mycobacterium bovis)?
A: Its MIC is > 20 µg/mL and > 56.1 µM.

Q: What about the inhibition at 30 µg/mL [1] of the same molecule?
A: Its inhibition at 30 µg/mL is 68.9%.

Q: What about the “Percentage of cell proliferation ± SD” value [2] of the same molecule?
A: The value was 80.1 ± 4.2%.

Q: And the melting point?
A: Its melting point is 160 to 162 °C.

Q: What does the source list for `CC(C)[C@H](NC(=O)c1cnccn1)C(=O)NNC(=O)c1ccncc1` [12b, (S)-N-(1-(2-Isonicotinoylhydrazineyl)-3-methyl-1-oxobutan-2-yl)pyrazine-2-carboxamide]?
A: MIC (Enterococcus faecalis): 0.33 µM (≈ 0.113 µg/mL); MIC (Mycobacterium marinum; observed MIC): 58.4 µM; MIC (Mycobacterium marinum): 20 µg/mL; MIC (Mycobacterium fortuitum; [3]): 58400 µM; MIC (Mycobacterium fortuitum; [4]): 58.4 µM; MIC (Mycobacterium fortuitum; [5]): 20 µg/mL; MIC (Mycobacterium bovis): > 20 µg/mL and > 58.4 µM; inhibition at 30 µg/mL [1]: 84.2%; Percentage of cell proliferation ± SD [2]: 96.4 ± 2.7%; melting point: 175 to 177 °C

Q: Which results are given for `CC[C@H](C)[C@H](NC(=O)c1cnccn1)C(=O)NNC(=O)c1ccncc1` [12c, N-((2S,3S)-1-(2-Isonicotinoylhydrazineyl)-3-methyl-1-oxopentan-2-yl)pyrazine-2-carboxamide]?
A: MIC (Mycobacterium marinum; observed MIC): 56.1 µM; MIC (Mycobacterium marinum): 20 µg/mL; MIC (Mycobacterium fortuitum; [3]): 56100 µM; MIC (Mycobacterium fortuitum; [4]): 56.1 µM; MIC (Mycobacterium fortuitum; [5]): 20 µg/mL; MIC (Mycobacterium bovis): > 20 µg/mL and > 56.1 µM; inhibition at 30 µg/mL [1]: 84.1%; Percentage of cell proliferation ± SD [2]: 84.6 ± 3.7%; melting point: 168 to 170 °C

Q: What does the source list for `O=C(NNC(=O)[C@H](Cc1ccccc1)NC(=O)c1cnccn1)c1ccncc1` [12e, (S)-N-(1-(2-Isonicotinoylhydrazineyl)-1-oxo-3-phenylpropan-2-yl)pyrazine-2-carboxamide]?
A: MIC (Mycobacterium marinum; observed MIC): 51.2 µM; MIC (Mycobacterium marinum): 20 µg/mL; MIC (Mycobacterium fortuitum; [3]): 51200 µM; MIC (Mycobacterium fortuitum; [4]): 51.2 µM; MIC (Mycobacterium fortuitum; [5]): 20 µg/mL; MIC (Mycobacterium bovis): > 20 µg/mL and > 51.2 µM; inhibition at 30 µg/mL [1]: 94.8%; Percentage of cell proliferation ± SD [2]: 83.2 ± 5.7%; melting point: 177 to 179 °C

Q: With `O=C(NNC(=O)C(Cc1ccccc1)NC(=O)c1cnccn1)c1ccncc1` (stereo not shown) [12f, N-(1-(2-Isonicotinoylhydrazineyl)-1-oxo-3-phenylpropan-2-yl)pyrazine-2-carboxamide] as the molecule, how does the MIC (Mycobacterium marinum; observed MIC) read?
A: Its MIC is 25.6 µM.

Q: And the MIC (Mycobacterium marinum)?
A: The MIC was 10 µg/mL.

Q: And the MIC (Mycobacterium fortuitum; [4])?
A: Its MIC is 25.6 µM.

Q: And the MIC (Mycobacterium fortuitum; [5])?
A: Its MIC is 10 µg/mL.

Q: And the “potency relative to INH (M. fortuitum MIC)” value (Mycobacterium fortuitum; vs INH MIC 145.8 μM)?
A: Its value is “about 5.6 folds”.

Q: And the “potency relative to PZA (M. fortuitum MIC)” value (Mycobacterium fortuitum; vs PZA MIC 81.2 μM)?
A: The value was ~3.2 folds.

Q: What about the MIC (Mycobacterium bovis) of the same molecule?
A: The MIC was > 20 µg/mL and > 51.2 µM.

Q: What about the “Percentage of cell proliferation ± SD” value [2] of the same molecule?
A: The value was 95.5 ± 8.6%.

Q: What about the melting point of the same molecule?
A: The melting point was 143 to 145 °C.

Q: For `O=C(NNC(=O)[C@H](Cc1c[nH]c2ccccc12)NC(=O)c1cnccn1)c1ccncc1` [12g, (S)-N-(3-(1H-Indol-3-yl)-1-(2-isonicotinoylhydrazineyl)-1-oxopropan-2-yl)pyrazine-2-carboxamide], which MIC (Mycobacterium marinum; observed MIC) is on record?
A: Its MIC is 46.6 µM.

Q: And the MIC (Mycobacterium marinum)?
A: The MIC was 20 µg/mL.

Q: And the MIC (Mycobacterium fortuitum; [3])?
A: The MIC was 46600 µM.

Q: What about the MIC (Mycobacterium fortuitum; [4]) of the same molecule?
A: The MIC was 46.6 µM.

Q: And the MIC (Mycobacterium fortuitum; [5])?
A: Its MIC is 20 µg/mL.

Q: And the MIC (Mycobacterium bovis)?
A: Its MIC is > 20 µg/mL and > 46.6 µM.

Q: And the inhibition at 30 µg/mL [1]?
A: Its inhibition at 30 µg/mL is 96%.

Q: And the “Percentage of cell proliferation ± SD” value [2]?
A: Its value is 92.2 ± 1.2%.

Q: What about the melting point of the same molecule?
A: Its melting point is 243 to 245 °C.
